Patent publication US20080025931A1, “Cosmetic method for limiting age-related hollowing of the face” (priority 2006, published 2008)

Assays:
[1] = tested on: human adipocytes obtained from the abdominal region; assay: Stimulation of lipogenesis by measuring the incorporation of 14C-acetate into the lipids; format: cell-based; conditions: for % control (incorporation of 14C-acetate into lipids): 1 h preincubation, 4 h treatment
Procedure: The activity of a Vitreoscilla filiformis cell extract as prepared according to Example 1 on a local adipose development was evaluated. The study was carried out on human adipocytes obtained from the abdominal region. Various parameters representing the adipocyte physiology were analysed: • a) stimulation of lipogenesis by measurement of the incorporation of ^14C-acetate into lipids; • b) stimulation of adipocyte differentiation by measuring the expression of adipocyte differentiation markers: LPL (lipoprotein lipase, involved in the storage of fat; • c) monitoring of the enrichment in lipids by specific staining (AdipoRed™) and imaging; • d) monitoring of the cell size/size distribution by flow cytometry and fluorescent labelling (AdipoRed™). Stimulation of Lipogenesis by Measuring the Incorporation of ^14C-acetate into the Lipids The adipocytes were isolated after an abdominal plastic surgery operation and then incubated in the presence of collagenase and then washed and taken up in test medium. This test medium contained: • product to be tested (Vitreoscilla filiformis extract at various concentrations/theophylline 1 mM/isoproterenol 1 μM), or nothing for the control • bicarbonate 1.87 mg/ml • penicillin/streptomycin 25 IU/ml/25 μg/ml • glutamine 2 mM • MEM without phenol red qs 100% (v/v) supplemented with lipid-free bovine serum albumin at 0.5% (w/v). The products to be tested and the adipocytes were preincubated at 37° C. for 1 h, and then ^14C-acetate was added at 50 μCi/ml. After 4 h of treatment, the lipids were extracted with methanol/chloroform/water and the incorporated radioactivity was counted by liquid scintillation.

LPL (lipoprotein lipase) = assay: Stimulation of adipocyte differentiation: expression of LPL marker by RT-Q-PCR in pre-adipocytes; format: cell-based, human; conditions: 25 ng/ml; 4 days; control differentiated cells = 100
Procedure: The activity of a Vitreoscilla filiformis cell extract as prepared according to Example 1 on a local adipose development was evaluated. The study was carried out on human adipocytes obtained from the abdominal region. Various parameters representing the adipocyte physiology were analysed: • a) stimulation of lipogenesis by measurement of the incorporation of ^14C-acetate into lipids; • b) stimulation of adipocyte differentiation by measuring the expression of adipocyte differentiation markers: LPL (lipoprotein lipase, involved in the storage of fat; • c) monitoring of the enrichment in lipids by specific staining (AdipoRed™) and imaging; • d) monitoring of the cell size/size distribution by flow cytometry and fluorescent labelling (AdipoRed™). […]
At the end of the treatment, the supernatants were removed and the cells rinsed in PBS and a volume of 300 μl of Tri-Reagent was added to each well. The expression of the LPL marker was evaluated by RT-Q-PCR on messenger RNAs extracted from the cellular lawns of each treatment. […]
The incorporation of fluorescence into the amplified DNA was measured continuously during the PCR cycles. A relative expression value was evaluated for the LPL marker, expressed in arbitrary units according to the following formula: (½^number of cycles)×10^6
The results are expressed as % relative expression compared with the control.

[2] = tested on: Normal human pre-adipocytes; assay: Enrichment with lipids by AdipoRed staining and imaging (Spectramax reader); format: cell-based; conditions: differentiated cells, 25 ng/ml
Procedure: (§1) Normal human pre-adipocytes were cultured in PGM growth medium at 37° C. and 5% CO2 until confluent. At confluence (D0), the cells were placed in differentiation medium (series 1, differentiated cells) or normal growth medium (series 2, undifferentiated cells), containing or not containing (control) the test products or the reference (TNFα, differentiation inhibitor). The cells were then incubated at 37° C. and 5% CO2 for 4 days.
Monitoring of the Enrichment with Lipids by Specific Staining (AdipoRed™) and Imaging
At the end of the treatments, the cells were rinsed in PBS and then the intracellular lipids were stained with AdipoRed from BioWhittaker. The stained cells were observed by optical microscopy, with the Spectramax reader.
(§2) The results are expressed as % increase relative to the control.

[3] = tested on: Normal human pre-adipocytes; assay: Cell size/size distribution by flow cytometry and AdipoRed fluorescent labelling; format: cell-based; conditions: differentiated cells; 25 ng/ml
Procedure: as §1
Monitoring of the Cell Size/Size Distribution by Flow Cytometry and AdipoRed™ Fluorescent Labelling
At the end of the treatments, the cells were rinsed in PBS and then the intracellular lipids were stained with AdipoRed from BioWhittaker.
At the end of the incubation, the cells were rinsed, trypsinized and then analysed by flow cytometry. The differentiation of the pre-adipocytes manifested itself at the morphological level by an increase in the number of intracytoplasmic lipid vesicles and an increase in the size of the cells.
as §2

With CC(C)NCC(O)c1ccc(O)c(O)c1 (stereo not shown) [Isoproterenol] the “% control (incorporation of 14C-acetate into lipids)” value ([1]; 1 μM) was 3400 % control.
For C/C=C/C/C=C/CCC(=O)[C@H]1O[C@H]1C(N)=O [Cerulenin], the “% control (incorporation of 14C-acetate into lipids)” value ([1]; 20 μM) was 34 % control and the “incorporation of acetate into lipids (in words)” value ([1]; tested at 0.02 mM) was “significantly inhibited”.
In the case of TNFα, the “LPL, % relative expression compared with the control” value (LPL (lipoprotein lipase)) is reported as 111%, the “lipid level (in words)” value [2] is reported as “reduced the lipid level” and the “% control (intracellular lipids, AdipoRed, Spectramax)” value ([2]; 4 days) is reported as 83 % control. The “% control (AdipoRed measurement, flow cytometry)” value [3] was 80 % control.
